Laboratory results taken from ChEMBL document CHEMBL4351024, “Steroidal N-Sulfonylimidates: Synthesis and biological evaluation in breast cancer cells” (Eur J Med Chem, 2019).
Calls of active or inactive are those of the source. The rule behind the calls is not given here.

Assays:
MCF7 = experiment: Antiproliferative activity against human MCF7 cells assessed as reduction in cell viability after 72 hrs by MTT assay; type: functional, cell-based
MDA-MB-231 [1] = experiment: Down regulation of slug levels in human MDA-MB-231 cells up to 50 uM measured after 48 hrs by Westernblot analysis; type: functional, cell-based
MCF-10A [2] = experiment: Cytotoxicity against human MCF10A assessed as reduction in cell viability up to 12 uM after 72 hrs by MTT assay; type: cell-based
MDA-MB-231 [3] = experiment: Effect on EGFR expression in human MDA-MB-231 cells up to 50 uM measured after 48 hrs by Westernblot analysis; type: functional, cell-based
MDA-MB-231 [4] = experiment: Antiproliferative activity against human MDA-MB-231 cells assessed as reduction in cell viability after 72 hrs by MTT assay; type: functional, cell-based; details: MDA-MB-231, 72 h
[5] = Effect on RAS/RAF/MEK/ERK pathway in human MDA-MB-231 cells assessed as increase in ERK1/2 phosphorylation up to 50 uM measured after 48 hrs by Western blot analysis; type: cell-based
MDA-MB-231 [6] = experiment: Downregulation of cyclin-D1 expression in human MDA-MB-231 cells up to 50 uM measured after 48 hrs by Westernblot analysis; type: functional, cell-based
[7] = target: Serine/threonine-protein kinase mTOR (Homo sapiens) (UniProt P42345); experiment: Inhibition of mTOR phosphorylation in human MDA-MB-231 cells up to 50 uM measured after 48 hrs by Western blot analysis; type: cell-based
[8] = target: Transcription factor p65 (Homo sapiens) (UniProt Q04206); experiment: Down regulation of NFkappaB p65 phosphorylation in human MDA-MB-231 cells up to 50 uM measured after 48 hrs by Western blot analysis; type: cell-based
Sequence of Transcription factor p65 (Homo sapiens) (Q04206 whole entry): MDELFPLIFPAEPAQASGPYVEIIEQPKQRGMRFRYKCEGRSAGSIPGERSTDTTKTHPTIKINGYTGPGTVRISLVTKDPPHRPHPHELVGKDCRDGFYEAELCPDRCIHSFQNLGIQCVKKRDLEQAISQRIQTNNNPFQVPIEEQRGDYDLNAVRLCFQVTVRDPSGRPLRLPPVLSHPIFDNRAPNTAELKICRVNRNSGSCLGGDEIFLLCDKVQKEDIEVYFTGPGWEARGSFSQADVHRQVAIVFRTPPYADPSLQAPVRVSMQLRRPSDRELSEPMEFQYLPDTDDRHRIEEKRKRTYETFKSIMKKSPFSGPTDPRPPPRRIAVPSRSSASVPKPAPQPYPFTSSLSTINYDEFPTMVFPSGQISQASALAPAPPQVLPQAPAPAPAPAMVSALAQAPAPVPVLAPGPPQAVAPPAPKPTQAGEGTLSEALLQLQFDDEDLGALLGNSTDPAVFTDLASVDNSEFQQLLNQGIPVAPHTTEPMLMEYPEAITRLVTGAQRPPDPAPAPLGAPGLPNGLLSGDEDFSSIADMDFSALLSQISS

MCF-10A [9] = experiment: Cytotoxicity against human MCF10A assessed as reduction in cell viability at 25 uM after 72 hrs by MTT assay; type: cell-based
[10] = Homo sapiens, MCF7, 72 h, read-out: IC50

| SMILES | IC50 (MCF7; [10]) | further results |
| --- | --- | --- |
| CCO/C(C[C@]1(O)CC[C@H]2[C@@H]3CCc4cc(OCc5ccccc5)ccc4[C@H]3CC[C@@]21C)=N/S(=O)(=O)c1ccc(C)cc1 | – | IC50 (MCF7; mcf7): Not Active |
| CCCO/C(C[C@]1(OC)CC[C@H]2[C@@H]3CCc4cc(OC)ccc4[C@H]3CC[C@@]21C)=N/S(=O)(=O)c1ccc(C)cc1 | 4.5 µM | – |
| CCO/C(C[C@]1(O)CC[C@H]2[C@@H]3CCc4cc(O)ccc4[C@H]3CC[C@@]21C)=N/S(=O)(=O)c1ccc(C)cc1 | 15.3 µM | – |
| CCO/C(C[C@]1(O)CC[C@H]2[C@@H]3CCc4cc(OC)ccc4[C@H]3CC[C@@]21C)=N/S(=O)(=O)c1ccc(C)cc1 | 11.8 µM | – |
| CCO/C(C[C@]1(OC)CC[C@H]2[C@@H]3CCc4cc(OC)ccc4[C@H]3CC[C@@]21C)=N/S(=O)(=O)c1ccc(C)cc1 | 7 µM | – |
| COc1ccc2c(c1)CC[C@@H]1[C@@H]2CC[C@@]2(C)[C@H]1CC[C@]2(C/C(=N\S(=O)(=O)c1ccc(C)cc1)OCC(C)C)OC | 8.5 µM | – |
| COc1ccc2c(c1)CC[C@@H]1[C@@H]2CC[C@@]2(C)[C@H]1CC[C@]2(C/C(=N\S(=O)(=O)c1ccc(C)cc1)OCCCCl)OC | 11.4 µM | – |
| COc1ccc2c(c1)CC[C@@H]1[C@@H]2CC[C@@]2(C)[C@H]1CC[C@]2(C/C(=N\S(=O)(=O)c1ccc(C)cc1)OC1CCCCC1)OC | 20 µM | – |
| CCO/C(C[C@]1(O)CC[C@H]2[C@@H]3CCc4cc(OS(=O)(=O)c5ccc(C)cc5)ccc4[C@H]3CC[C@@]21C)=N/S(=O)(=O)c1ccc(C)cc1 | – | IC50 (MCF7; mcf7): Not Active |
| CCO/C(CC1=CC[C@H]2[C@@H]3CCc4cc(OC(C)=O)ccc4[C@H]3CC[C@]12C)=N/S(=O)(=O)c1ccc(C)cc1 | 5.6 µM | – |
| CCCCO/C(C[C@]1(OC)CC[C@H]2[C@@H]3CCc4cc(OC)ccc4[C@H]3CC[C@@]21C)=N/S(=O)(=O)c1ccc(C)cc1 | 10.5 µM | – |
| CCCO/C(C[C@]1(O)CC[C@H]2[C@@H]3CCc4cc(OC(C)=O)ccc4[C@H]3CC[C@@]21C)=N/S(=O)(=O)c1ccc(C)cc1 | 17.9 µM | – |
| CCO/C(C[C@]1(O)CC[C@H]2[C@@H]3CCc4cc(OC(C)=O)ccc4[C@H]3CC[C@@]21C)=N/S(=O)(=O)c1ccc(C)cc1 | 12.2 µM | – |
| COc1ccc2c(c1)CC[C@@H]1[C@@H]2CC[C@@]2(C)[C@H]1CC[C@]2(C/C(=N\S(=O)(=O)c1ccc(C)cc1)OC(C)C)OC | 4.3 µM | Activity (MDA-MB-231 [1]): Active; Activity (MCF-10A [2]): Non-Toxic; Activity (MDA-MB-231 [3]): inactive; IC50 (MDA-MB-231 [4]): 11.3 µM; Activity [5]: Active; Activity (MDA-MB-231 [6]): Active; inhibition [7]: inactive; Activity [8]: Active; Activity (MCF-10A [9]): Toxic |
| COc1ccc2c(c1)CC[C@@H]1[C@@H]2CC[C@@]2(C)[C@H]1CC[C@]2(C/C(=N\S(=O)(=O)c1ccc(C)cc1)OCCC(C)C)OC | 21.7 µM | – |
| COc1ccc2c(c1)CC[C@@H]1[C@@H]2CC[C@@]2(C)[C@H]1CC[C@@]2(O)CC(=O)NS(=O)(=O)c1ccc(C)cc1 | – | IC50 (MCF7; mcf7): Not Active |
| CCCCCCCO/C(C[C@]1(OC)CC[C@H]2[C@@H]3CCc4cc(OC)ccc4[C@H]3CC[C@@]21C)=N/S(=O)(=O)c1ccc(C)cc1 | – | IC50 (MCF7; mcf7): Not Active |
| CCCO/C(C[C@]1(O)CC[C@H]2[C@@H]3CCC4=CC(=O)CC[C@]4(C)[C@H]3CC[C@@]21C)=N/S(=O)(=O)c1ccc(C)cc1 | 22.4 µM | – |
| CCCO/C(C[C@]1(O)CC[C@H]2[C@@H]3CCc4cc(OC)ccc4[C@H]3CC[C@@]21C)=N/S(=O)(=O)c1ccc(C)cc1 | 15.5 µM | – |
| CCO/C(C[C@]1(O)CC[C@H]2[C@@H]3CCC4=CC(=O)CC[C@]4(C)[C@H]3CC[C@@]21C)=N/S(=O)(=O)c1ccc(C)cc1 | 9.9 µM | – |
| CCCCCCCCCCCCO/C(C[C@]1(OC)CC[C@H]2[C@@H]3CCc4cc(OC)ccc4[C@H]3CC[C@@]21C)=N/S(=O)(=O)c1ccc(C)cc1 | – | IC50 (MCF7; mcf7): Not Active |
| COc1ccc2c(c1)CC[C@@H]1[C@@H]2CC[C@@]2(C)[C@H]1CC[C@]2(C/C(=N\S(=O)(=O)c1ccc(C)cc1)OCC(Cl)(Cl)Cl)OC | 22.2 µM | – |
| Cc1ccc(S(=O)(=O)NC(=O)C[C@]2(O)CC[C@H]3[C@@H]4CCc5cc(O)ccc5[C@H]4CC[C@@]32C)cc1 | – | IC50 (MCF7; mcf7): Not Active |
| CCO/C(CC1=CC[C@H]2[C@@H]3CCc4cc(OC)ccc4[C@H]3CC[C@]12C)=N/S(=O)(=O)c1ccc(C)cc1 | 9.5 µM | – |
| CCCCCCO/C(C[C@]1(OC)CC[C@H]2[C@@H]3CCc4cc(OC)ccc4[C@H]3CC[C@@]21C)=N/S(=O)(=O)c1ccc(C)cc1 | – | IC50 (MCF7; mcf7): Not Active |
